This is an account of results in US4720458A, “Heat sensitive bacterial alkaline phosphatase” (priority 1983, dated 1988).

Test [1] deals with E. coli alkaline phosphatase (APase) (Escherichia coli, UniProt P00634). As to the kind of experiment: E. coli APase inactivation by EDTA (comparison enzyme). It counts as biochemical. Particulars: read-out: EDTA concentration giving 50% inactivation of E. coli APase.
Test [2] deals with HK-47 alkaline phosphatase (APase) from Antarctic psychrophilic marine bacterium strain HK-47 (ATCC 39469). On the procedure:
APase activity was routinely assayed at 25° C. for 30 min in 100 μl reaction mixture containing 2 mM p-nitrophenyl phosphate, 5 mM CaCl2, 0.1M CAPS-NaOH buffer pH 9.5. The reaction was stopped by adding 300 μl of 13% (W/V) EDTA-1N NaOH to the reaction mixture. Control mixtures were similarly prepared, except that 13% EDTA-1N NaOH was added before the enzyme activity was assayed. APase activity was measured as the difference in absorbance at 410 nm between samples and control. One unit of APase activity is expressed as 1 micromole of p-nitrophenol (pNp) liberated per minute at 25° C. under the assay conditions. Protein concentration was determined by the Bio-Rad protein assay kit. Bovine serum albumin (BSA) was used as the standard. Homogeneity of the APase was examined by polyacrylamide gel electrophoresis and Bio-Rad (Bio-Rad laboratories, Richmond, CA.) silver stain.

E. coli alkaline phosphatase (APase), sequence (P00634 22-471): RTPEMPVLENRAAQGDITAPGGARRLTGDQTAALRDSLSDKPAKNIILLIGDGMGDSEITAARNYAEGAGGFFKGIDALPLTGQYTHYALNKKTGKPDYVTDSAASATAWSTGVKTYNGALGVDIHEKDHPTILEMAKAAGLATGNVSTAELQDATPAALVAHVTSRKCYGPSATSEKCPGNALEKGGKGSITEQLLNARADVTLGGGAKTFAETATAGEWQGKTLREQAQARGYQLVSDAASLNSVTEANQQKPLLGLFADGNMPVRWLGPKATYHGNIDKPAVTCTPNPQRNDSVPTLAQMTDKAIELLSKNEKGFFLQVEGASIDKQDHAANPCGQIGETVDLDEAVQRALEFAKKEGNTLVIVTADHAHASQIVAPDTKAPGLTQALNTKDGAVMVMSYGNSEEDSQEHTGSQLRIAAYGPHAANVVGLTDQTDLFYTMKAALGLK

In the case of `O=C(O)CN(CCN(CC(=O)O)CC(=O)O)CC(=O)O` [EDTA], the IC50 in test [1] is 10 mM; in test [2] (read-out: EDTA concentration inhibiting HK-47 APase activity 50%, HK-47 APase, 'as little as'), 0.1 mM. Besides, the “inhibition of HK-47 APase activity” value in test [2] (at 1 mM EDTA) was roughly 100%. In addition, in test [2] (ratio of the 50% inhibition concentrations, E. coli vs HK-47), the “sensitivity to EDTA of HK-47 APase relative to E. coli APase” value is recorded as 100 fold.
